How the values were obtained:
Type in all cases: cell-based
BHK-21 cells = test: Anti-fibrosis activity test: inhibition of BHK-21 cell proliferation (CCK-8); details: Mesocricetus auratus, BHK-21, 48 h, 48 h, CCK-8
How it was run: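 Cells plated 2×10^4 cells/mL; 24 h attach; compound dilutions, triplicate, 48 h, 37° C/5% CO2; CCK-8 2 h; A450; IR = (1−Ai/Ao)×100%; IC50 by curve fit.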

[1] = tested on: human lung fibroblasts HFL1; test: Anti-fibrosis activity test: inhibition of proliferation of human lung fibroblasts HFL1 (CCK-8); details: Homo sapiens, HFL1, 48 h, HFL1 cells, 48 h, CCK-8
How it was run: (§1)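 Seed 2×10^4 cells/mL; adhere 24 h, 37° C/5% CO2. Compounds, serial concentrations, triplicate, 48 h. CCK-8 2 h, A450. IR=(1−Ai/Ao)×100% vs blank; IC50 fitted. Pirfenidone as positive control.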

[2] = tested on: human hepatic stellate cells LX-2; test: Anti-fibrosis activity test: inhibition of proliferation of human hepatic stellate cells LX-2 (CCK-8); details: Homo sapiens, LX-2, 48 h, LX-2 cells, 48 h, CCK-8
How it was run: as §1

[3] = tested on: human fibrosarcoma cells HT-1080; test: Anti-fibrosis activity test: inhibition of proliferation of human fibrosarcoma cells HT-1080 (CCK-8); details: Homo sapiens, HT-1080, 48 h, HT-1080 cells, 48 h, CCK-8
How it was run: as §1

[4] = tested on: human dermal fibroblasts CCC-ESF-1; test: Anti-fibrosis activity test: inhibition of proliferation of human dermal fibroblasts CCC-ESF-1 (CCK-8); details: Homo sapiens, Fibroblast; CCC-ESF-1 cells, 48 h, CCK-8
How it was run: as §1

[5] = tested on: human embryonic lung fibroblast IMR-90; test: Anti-fibrosis activity test: inhibition of proliferation of human embryonic lung fibroblast IMR-90 (CCK-8); details: Homo sapiens; IMR-90 cells, 48 h, CCK-8
How it was run: as §1

[6] = tested on: cardiac fibroblast RAT-iCell-C002; test: Anti-fibrosis activity test: inhibition of proliferation of cardiac fibroblast RAT-iCell-C002 (CCK-8); details: Cardiac fibroblast, 48 h, RAT-iCell-C002 cells, CCK-8
How it was run: as §1

NF-κB = test: Immunological activity test: inhibition of NF-κB activity; details: initial concentration of 30 μM; a/b isomers given as first/second symbol; read-out: IC50 (μM), inhibitory activity against NF-κB
How it was run: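 Parthenolide as positive control; starting test concentration 30 μM; inhibition of NF-κB activity analysed further to yield IC50.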

[7] = tested on: mouse macrophages (RAW264.7); test: Lipopolysaccharide-induced NO secretion in macrophages (Griess); details: Mus musculus, RAW264.7, 24 h, RAW264.7, LPS 1 μg/ml, a/b isomers given as first/second symbol, read-out: IC50 (μM), inhibition of lipopolysaccharide-induced NO secretion in macrophages
How it was run: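 LPS 1 μg/ml, 24 h, RAW264.7 (DMEM/10% FBS); cpds at varied concs. Supernatant NO by Griess, A548; % inhibition vs blank medium.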

## Cc1ccc2nc3c(c(O)c2c1)C(=O)n1cccc1-3 [Compound 696b, 9-hydroxy-7-methyl-10H-pyrrolizino[1,2-b]quinolin-10-one]
BHK-21 cells
  IC50: 0.05 to 5 mM
[1]
  IC50: 0.05 to 5 mM
[2]
  IC50: 0.05 to 5 mM
[3]
  IC50: 0.05 to 5 mM
[4]
  IC50: 0.05 to 5 mM
[5]
  IC50: 0.05 to 5 mM
[6]
  IC50: 0.05 to 5 mM
NF-κB
  IC50: 1 to 10 µM
[7]
  IC50: 1 to 10 µM

## Cc1cccc2c(=O)c3c([nH]c12)-c1cccn1C3=O [Compound 732a, 5-Methyl-9H-pyrrolizino[1,2-b]quinoline-9,10(4H)-dione]
BHK-21 cells
  IC50: < 0.05 mM
[1]
  IC50: 0.05 to 5 mM
[2]
  IC50: 0.05 to 5 mM
[3]
  IC50: 0.05 to 5 mM
[4]
  IC50: < 0.05 mM
[5]
  IC50: 0.05 to 5 mM
[6]
  IC50: 0.05 to 5 mM
NF-κB
  IC50: 0.1 to 1 µM
[7]
  IC50: 1 to 10 µM

## Cc1cccc2c(O)c3c(nc12)-c1cccn1C3=O [Compound 732b, 9-hydroxy-5-methyl-10H-pyrrolizino[1,2-b]quinolin-10-one]
BHK-21 cells
  IC50: 0.05 to 5 mM
[1]
  IC50: 0.05 to 5 mM
[2]
  IC50: 0.05 to 5 mM
[3]
  IC50: 0.05 to 5 mM
[4]
  IC50: 0.05 to 5 mM
[5]
  IC50: 0.05 to 5 mM
[6]
  IC50: 0.05 to 5 mM
NF-κB
  IC50: 1 to 10 µM
[7]
  IC50: 1 to 10 µM

## Cc1cc(C)c2[nH]c3c(c(=O)c2c1)C(=O)n1cccc1-3 [Compound 750a, 5,7-Dimethyl-9H-pyrrolizino[1,2-b]quinoline-9,10(4H)-dione]
BHK-21 cells
  IC50: 0.05 to 5 mM
[1]
  IC50: 0.05 to 5 mM
[2]
  IC50: 0.05 to 5 mM
[3]
  IC50: 0.05 to 5 mM
[4]
  IC50: 0.05 to 5 mM
[5]
  IC50: 0.05 to 5 mM
[6]
  IC50: 0.05 to 5 mM
NF-κB
  IC50: 1 to 10 µM
[7]
  IC50: 1 to 10 µM

## Cc1cc(C)c2nc3c(c(O)c2c1)C(=O)n1cccc1-3 [Compound 750b, 9-hydroxy-5,7-dimethyl-10H-pyrrolizino[1,2-b]quinolin-10-one]
BHK-21 cells
  IC50: 0.05 to 5 mM
[1]
  IC50: 0.05 to 5 mM
[2]
  IC50: 0.05 to 5 mM
[3]
  IC50: 0.05 to 5 mM
[4]
  IC50: 0.05 to 5 mM
[5]
  IC50: 0.05 to 5 mM
[6]
  IC50: 0.05 to 5 mM
NF-κB
  IC50: 1 to 10 µM
[7]
  IC50: 1 to 10 µM

## Cc1cc2[nH]c3c(c(=O)c2cc1C)C(=O)n1cccc1-3 [Compound 756a, 6,7-Dimethyl-9H-pyrrolizino[1,2-b]quinoline-9,10(4H)-dione]
BHK-21 cells
  IC50: 0.05 to 5 mM
[1]
  IC50: 0.05 to 5 mM
[2]
  IC50: 0.05 to 5 mM
[3]
  IC50: 0.05 to 5 mM
[4]
  IC50: 0.05 to 5 mM
[5]
  IC50: 0.05 to 5 mM
[6]
  IC50: 0.05 to 5 mM
NF-κB
  IC50: 1 to 10 µM
[7]
  IC50: 0.1 to 1 µM

## Cc1cc2nc3c(c(O)c2cc1C)C(=O)n1cccc1-3 [Compound 756b, 9-hydroxy-6,7-dimethyl-10H-pyrrolizino[1,2-b]quinolin-10-one]
BHK-21 cells
  IC50: 0.05 to 5 mM
[1]
  IC50: 0.05 to 5 mM
[2]
  IC50: 0.05 to 5 mM
[3]
  IC50: 0.05 to 5 mM
[4]
  IC50: 0.05 to 5 mM
[5]
  IC50: 0.05 to 5 mM
[6]
  IC50: 0.05 to 5 mM
NF-κB
  IC50: 1 to 10 µM
[7]
  IC50: 10 to 50 µM

## Cc1cc(C)c2c(=O)c3c([nH]c2c1)-c1cccn1C3=O [Compound 768a, 6,8-Dimethyl-9H-pyrrolizino[1,2-b]quinoline-9,10(4H)-dione]
BHK-21 cells
  IC50: 0.05 to 5 mM
[1]
  IC50: 0.05 to 5 mM
[2]
  IC50: 0.05 to 5 mM
[3]
  IC50: 0.05 to 5 mM
[4]
  IC50: 0.05 to 5 mM
[5]
  IC50: 0.05 to 5 mM
[6]
  IC50: 0.05 to 5 mM
NF-κB
  IC50: 0.1 to 1 µM
[7]
  IC50: 1 to 10 µM

## Cc1cc(C)c2c(O)c3c(nc2c1)-c1cccn1C3=O [Compound 768b, 9-hydroxy-6,8-dimethyl-10H-pyrrolizino[1,2-b]quinolin-10-one]
BHK-21 cells
  IC50: 0.05 to 5 mM
[1]
  IC50: 0.05 to 5 mM
[2]
  IC50: 0.05 to 5 mM
[3]
  IC50: 0.05 to 5 mM
[4]
  IC50: 0.05 to 5 mM
[5]
  IC50: 0.05 to 5 mM
[6]
  IC50: 0.05 to 5 mM
NF-κB
  IC50: 1 to 10 µM
[7]
  IC50: 1 to 10 µM

## Cc1ccc(C)c2c(=O)c3c([nH]c12)-c1cccn1C3=O [Compound 772a, 5,8-Dimethyl-9H-pyrrolizino[1,2-b]quinoline-9,10(4H)-dione]
BHK-21 cells
  IC50: < 0.05 mM
[1]
  IC50: 0.05 to 5 mM
[2]
  IC50: 0.05 to 5 mM
[3]
  IC50: 0.05 to 5 mM
[4]
  IC50: 0.05 to 5 mM
[5]
  IC50: 0.05 to 5 mM
[6]
  IC50: 0.05 to 5 mM
NF-κB
  IC50: 1 to 10 µM
[7]
  IC50: 1 to 10 µM

From patent publication US11040028B2, “Penicinotam derivative, preparation method and use thereof” (OCEAN UNIVERSITY OF CHINA, priority 2017, dated 2021)
